Converted amounts (≈) assume the structure as drawn.
Tests used:
[1] = Lipophilicity, logP of the compound by LC/UV/MS analysis; type: physicochemical; settings: octanol/water
[2] = Lipophilicity, logD of compound at pH 7.4 by shake flask method; type: physicochemical; settings: buffer
[3] = Plasma protein binding in human assessed as free fraction at 1 mM by equilibrium dialysis assay; type: ADME, cell-free
[4] = Aqueous solubility of compound in pH 7.4 phosphate buffer; type: physicochemical
[5] = Metabolic stability in human liver microsomes assessed as half life at 1 uM measured upto 60 mins by LC-MS/MS analysis; type: ADME, Microsome; settings: for t1/2: microsomes, 1 h, 1 µM; for half-life at 1 µM: liver microsomes
[6] = Metabolic stability in human liver microsomes assessed as compound remaining at 1 uM measured upto 60 mins in presence of NADPH for 15 mins by LC-MS/MS analysis; type: ADME, Microsome; settings: for Stability: microsomes, 1 h, 1 µM; for remaining at 1 h, 1 µM: liver microsomes, read-out: Stability
[7] = Metabolic stability in mouse liver microsomes assessed as compound remaining at 1 uM measured upto 60 mins in presence of NADPH for 15 mins by LC-MS/MS analysis; type: ADME, Microsome; settings: for Stability: microsomes, 1 h, 1 µM; for remaining at 1 h, 1 µM: liver microsomes, read-out: Stability
[8] = Metabolic stability in mouse liver microsomes at 1 uM measured upto 60 mins by LC-MS/MS analysis; type: ADME, Microsome; settings: 1 h
[9] = Metabolic stability in human liver microsomes assessed as intrinsic clearance at 1 uM measured upto 60 mins by LC-MS/MS analysis; type: ADME, Microsome; settings: 1 h
[10] = Metabolic stability in mouse liver microsomes assessed as intrinsic clearance at 1 uM measured upto 60 mins by LC-MS/MS analysis; type: ADME, Microsome; settings: 1 h
[11] = Metabolic stability in mouse liver microsomes assessed as half life at 1 uM measured upto 60 mins by LC-MS/MS analysis; type: ADME, Microsome; settings: for half-life at 1 µM: liver microsomes; for t1/2: microsomes, 1 h, 1 µM
HepG2 = test: Cytotoxicity against human HepG2 cells assessed as inhibition of cell growth incubated for 3 days by trypan blue assay; type: functional, cell-based; settings: HepG2, 72 h

Row | SMILES | logP [1] | logD [2] | fraction unbound [3] | solubility [4] [µM] | other results
1 | COc1ccccc1OCCCC1CCOCC1 | 3.4 |  | 0.106 | 244 (≈ 61.1 µg/mL) | t1/2 [5]: 18.07 min; Stability [6]: 50.46%; Stability ([7]; BLD = below limit of detection): Bld; Stability [8]: Unstable; CLint [9]: 77 µL/min/mg
2 | c1ccc(CCOC2CCCCC2)cc1 | 6.2 |  |  |  | 
3 | CCCCCON1CCc2ccccc2C1 | 5.9 | 4.7 |  |  | 
4 | c1ccc2c(c1)CCCC2CCCN1CCN(C2CCCCC2)CC1 (stereo not given) | 6.2 | 3.9 | 0.0519 | 288 (≈ 98.1 µg/mL) | half-life at 1 µM [5]: 5.04 min; remaining at 1 h, 1 µM [6]: 13.6%; CLint [10]: 455 µL/min/mg; remaining at 1 h, 1 µM [7]: 3.7%; half-life at 1 µM [11]: 3.05 min; CLint [9]: 275 µL/min/mg
5 | c1ccc2c(c1)CCCN2CCCN1CCN(C2CCCCC2)CC1 | 5.3 | 1.8 | 0.153 | 275 (≈ 93.9 µg/mL) | half-life at 1 µM [5]: 5.06 min; remaining at 1 h, 1 µM [6]: 13.7%; remaining at 1 h, 1 µM [7]: 8.5%; half-life at 1 µM [11]: 4.07 min
6 | O=C(CCCCCCC(=O)Nc1ccccc1)NO [VORINOSTAT] |  |  |  |  | IC50 (HepG2): 3.2 ng/mL (≈ 0.0121 µM)
7 | CCCCCOC1CCc2ccccc2C1 (stereo not given) | 6.6 |  |  |  | 
8 | c1ccc2c(c1)CCCC2OCCN1CCN(C2CCCCC2)CC1 (stereo not given) | 5 | 2.7 | 0.322 | 287 (≈ 98.3 µg/mL) | t1/2 [5]: 5.67 min; Stability [6]: 17.01%; remaining at 1 h, 1 µM [7]: 3.98%; half-life at 1 µM [11]: 3.12 min
9 | COc1ccccc1OCCOC1CCOCC1 | 2.1 |  | 0.544 | 275 (≈ 69.4 µg/mL) | t1/2 [5]: 83.41 min; Stability [6]: 82.92%; CLint [10]: 196 µL/min/mg; Stability [7]: 24.08%; t1/2 [11]: 7.06 min; CLint [9]: 17 µL/min/mg
10 | c1ccc2c(c1)CCCN2OCCN1CCN(C2CCCCC2)CC1 | 5 | 2.4 | 0.341 | > 300 | t1/2 [5]: 13.74 min; Stability [6]: 48.07%; remaining at 1 h, 1 µM [7]: 4.32%; half-life at 1 µM [11]: 3.19 min
11 | CCCCCCC1CCc2ccccc2C1 (stereo not given) | 7.9 |  |  |  | 
12 | COc1ccccc1OCCCN1CCOCC1 | 2.3 | 1.3 | 0.573 | 273 (≈ 68.6 µg/mL) | half-life at 1 µM [5]: > 300 min; remaining at 1 h, 1 µM [6]: 91%; CLint [10]: 315 µL/min/mg; remaining at 1 h, 1 µM [7]: 10.2%; half-life at 1 µM [11]: 4.4 min; CLint [9]: < 5 µL/min/mg
13 | CCCCCCN1CCc2ccccc2C1 | 5.3 | 3.3 |  |  | 
14 | COc1ccccc1OCCON1CCOCC1 | 2.1 | 1.3 | 0.625 | 293 (≈ 74.2 µg/mL) | t1/2 [5]: 98.54 min; Stability [6]: 91.54%; CLint [10]: 129 µL/min/mg; Stability [7]: 36.43%; t1/2 [11]: 10.75 min; CLint [9]: 14 µL/min/mg

Continued, in another order:

Row | logP [1] | logD [2] | fraction unbound [3] | solubility [4] [µM] | SMILES | other results
15 | 6.6 |  |  |  | c1ccc(COCCCCC2CCCCC2)cc1 | 
16 | 5.8 | 0.9 |  |  | c1ccc(COCCCCN2CCCCC2)cc1 | 
17 | 4.8 | 3.2 |  |  | c1ccc(CCON2CCCCC2)cc1 | 
18 | 6.2 |  |  |  | c1ccc(COCCCOC2CCCCC2)cc1 | 
19 | 5.1 | 1 |  |  | c1ccc(CCCN2CCCCC2)cc1 | 
20 | 6.6 |  |  |  | c1ccc(CCCC2CCCCC2)cc1 | 
21 | 4.8 | 3 |  |  | c1ccc(COCCCON2CCCCC2)cc1 | 
